Test results reported in patent publication US8008303B2, “Biphenyl derivatives and their use in treating hepatitis C” (AstraZeneca AB, priority 2005, dated 2011).
Like-named read-outs stand apart in the source and are kept apart here.

Legend:
[1] = test system: HCV replicon cells Huh 9B; assay: HCV replicon assay (luciferase readout); assay type: cell-based
In short: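 Compounds, made up at twice final strength (final DMSO 1%), were added to subgenomic replicon cells one day after plating. Incubation then ran 72 h at 37 °C, 5% CO2, without G418. Replication was quantified as firefly luciferase luminescence in lysed cells, with cytotoxicity assessed on a duplicate clear plate.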

[2] = test system: HCV replicon cells Huh 9B; assay type: cell-based
[3] = Hepatitis C virus, 72 h, concentration reducing replicon level (luciferase activity) by 50% vs untreated cell control, 72 h incubation
[4] = concentration reducing total cell area by 50% relative to DMSO controls, methylene blue, absorbance 620 nm, 72 h incubation

| Structure (SMILES) | IC50 [1] | TD50 [2] | IC50 [1, 3] | TD50 [2, 4] |
| --- | --- | --- | --- | --- |
| COc1cccc(NC(=O)c2cccc(-c3ccc(C(=O)Nc4ccc(N5CCOCC5)cc4)cc3C)c2)c1 [Example 62, 2′-Methyl-biphenyl-3,4′-dicarboxylic acid 3-[(3-methoxy-phenyl)-amide] 4′-[(4-morpholin-4-yl-phenyl)-amide]] | < 1 µM | * (key: * < 50 μM; ** > 50 μM) | – | – |
| Cc1cc(C(=O)Nc2ccc(N3CCOCC3)cc2)ccc1-c1cccc(C(=O)Nc2ccc3cn[nH]c3c2)c1 [Example 63, 2′-Methyl-biphenyl-3,4′-dicarboxylic acid 3-[(1H-indazol-6-yl)-amide] 4′-[(4-morpholin-4-yl-phenyl)-amide]] | < 1 µM | * (key: * < 50 μM; ** > 50 μM) | – | – |
| Cc1cc(C(=O)Nc2ccc(N3CCOCC3)cc2)ccc1-c1cccc(C(=O)Nc2cccc(Br)c2)c1 [Example 64, 2′-Methyl-biphenyl-3,4′-dicarboxylic acid 3-[(3-bromo-phenyl)-amide] 4′-[(4-morpholin-4-yl-phenyl)-amide]] | < 1 µM | * (key: * < 50 μM; ** > 50 μM) | – | – |
| Cc1cc(C(=O)Nc2ccc(N3CCOCC3)cc2)ccc1-c1cccc(C(=O)Nc2ccc(-c3ccno3)cc2)c1 [Example 65, 2′-Methyl-biphenyl-3,4′-dicarboxylic acid 3-[(4-isoxazol-5-yl-phenyl)-amide] 4′-[(4-morpholin-4-yl-phenyl)-amide]] | < 1 µM | * (key: * < 50 μM; ** > 50 μM) | – | – |
| Cc1cc(C(=O)Nc2ccc(N3CCOCC3)cc2)ccc1-c1cccc(C(=O)NCc2cccc(Cl)c2)c1 [Example 66, 2′-Methyl-biphenyl-3,4′-dicarboxylic acid 3-(3-chloro-benzylamide) 4′-[(4-morpholin-4-yl-phenyl)-amide]] | 1 to 5 µM | * (key: * < 50 μM; ** > 50 μM) | – | – |
| Cc1ccc(C(=O)Nc2ccc(N3CCOCC3)cc2)cc1-c1ccc(C(=O)Nc2ccc3cn[nH]c3c2)cc1 [Example 67, 6-Methyl-biphenyl-3,4′-dicarboxylic acid 4′-[(1H-indazol-6-yl)-amide] 3-[(4-morpholin-4-yl-phenyl)-amide]] | < 1 µM | ** (key: * < 50 μM; ** > 50 μM) | – | – |
| Cc1ccc(NC(=O)c2ccc(N3CCOCC3)cc2)cc1-c1ccc(C(=O)Nc2cccc(OC(F)(F)F)c2)cc1 [Example 68, 2′-Methyl-5′-(4-morpholin-4-yl-benzoylamino)-biphenyl-4-carboxylic acid (3-trifluoromethoxy-phenyl)-amide] | – | – | 1 to 5 µM | ** (** > 50 μM) |
| Cc1ccc(C(=O)Nc2ccc(N3CCOCC3)cc2)cc1-c1ccc(C(=O)Nc2cccc(CN3CCSCC3)c2)cc1 [Example 69, 6-Methyl-biphenyl-3,4′-dicarboxylic acid 3-[(4-morpholin-4-yl-phenyl)-amide] 4′-[(3-thiomorpholin-4-ylmethyl-phenyl)-amide]] | < 1 µM | * (key: * < 50 μM; ** > 50 μM) | – | – |
| Cc1ccc(C(=O)Nc2ccc(N3CCOCC3)cc2)cc1-c1ccc(C(=O)Nc2ccc(C(=O)N(C)C)cc2)cc1 [Example 70, 6-Methyl-biphenyl-3,4′-dicarboxylic acid 4′-[(4-dimethylcarbamoyl-phenyl)-amide] 3-[(4-morpholin-4-yl-phenyl)-amide]] | 1 to 5 µM | * (key: * < 50 μM; ** > 50 μM) | – | – |
| CCC1(c2ccc(NC(=O)c3ccc(-c4cc(C(=O)Nc5ccc(N6CCOCC6)cc5)ccc4C)cc3)cc2)CCC(O)NC1=O (stereo not shown) [Example 71, 6-Methyl-biphenyl-3,4′-dicarboxylic acid 4′-{[4-(3-ethyl-6-hydroxy-2-oxo-piperidin-3-yl)-phenyl]-amide} 3-[(4-morpholin-4-yl-phenyl)-amide]] | < 1 µM | * (key: * < 50 μM; ** > 50 μM) | – | – |
| CC(=O)Nc1cccc(NC(=O)c2ccc(-c3cc(C(=O)Nc4ccc(N5CCOCC5)cc4)ccc3C)cc2)c1 [Example 72, 6-Methyl-biphenyl-3,4′-dicarboxylic acid 4′-[(3-acetylamino-phenyl)-amide] 3-[(4-morpholin-4-yl-phenyl)-amide]] | 1 to 5 µM | * (key: * < 50 μM; ** > 50 μM) | – | – |
| Cc1ccc(C(=O)Nc2ccc(N3CCOCC3)cc2)cc1-c1ccc(C(=O)Nc2ccc(CN3CCCCC3)cc2)cc1 [Example 73, 6-Methyl-biphenyl-3,4′-dicarboxylic acid 3-[(4-morpholin-4-yl-phenyl)-amide] 4′-[(4-piperidin-1-ylmethyl-phenyl)-amide]] | < 1 µM | * (key: * < 50 μM; ** > 50 μM) | – | – |
| Cc1ccc(C(=O)Nc2ccc(N3CCOCC3)cc2)cc1-c1ccc(C(=O)Nc2ccc(CN3CCOCC3)cc2)cc1 [Example 74, 6-Methyl-biphenyl-3,4′-dicarboxylic acid 4′-[(4-morpholin-4-ylmethyl-phenyl)-amide] 3-[(4-morpholin-4-yl-phenyl)-amide]] | 1 to 5 µM | * (key: * < 50 μM; ** > 50 μM) | – | – |
| Cc1ccc(C(=O)Nc2ccc(N3CCOCC3)cc2)cc1-c1ccc(C(=O)Nc2ccc(CN3CCCC3)cc2)cc1 [Example 75, 6-Methyl-biphenyl-3,4′-dicarboxylic acid 3-[(4-morpholin-4-yl-phenyl)-amide] 4′-[(4-pyrrolidin-1-ylmethyl-phenyl)-amide]] | > 5 µM | * (key: * < 50 μM; ** > 50 μM) | – | – |
| CCCN(C)Cc1ccc(NC(=O)c2ccc(-c3cc(C(=O)Nc4ccc(N5CCOCC5)cc4)ccc3C)cc2)cc1 [Example 76, 6-Methyl-biphenyl-3,4′-dicarboxylic acid 4′-({4-[(methyl-propyl-amino)-methyl]-phenyl}-amide) 3-[(4-morpholin-4-yl-phenyl)-amide]] | 1 to 5 µM | * (key: * < 50 μM; ** > 50 μM) | – | – |
| CC(=O)Nc1cc(NC(=O)c2ccc(-c3cc(C(=O)Nc4ccc(N5CCOCC5)cc4)ccc3C)cc2)ccc1C [Example 77, 6-Methyl-biphenyl-3,4′-dicarboxylic acid 4′-[(3-acetylamino-4-methyl-phenyl)-amide] 3-[(4-morpholin-4-yl-phenyl)-amide]] | 1 to 5 µM | * (key: * < 50 μM; ** > 50 μM) | – | – |
| Cc1ccc(C(=O)Nc2ccc(N3CCOCC3)cc2)cc1-c1ccc(C(=O)Nc2cccc(NS(C)(=O)=O)c2)cc1 [Example 78, 6-Methyl-biphenyl-3,4′-dicarboxylic acid 4′-[(3-methanesulfonylamino-phenyl)-amide] 3-[(4-morpholin-4-yl-phenyl)-amide]] | 1 to 5 µM | * (key: * < 50 μM; ** > 50 μM) | – | – |
| Cc1ccc(C(=O)Nc2ccc(N3CCOCC3)cc2)cc1-c1ccc(C(=O)Nc2ccc3[nH]c(=O)[nH]c3c2)cc1 [Example 79, 6-Methyl-biphenyl-3,4′-dicarboxylic acid 3-[(4-morpholin-4-yl-phenyl)-amide] 4′-[(2-oxo-2,3-dihydro-1H-benzoimidazol-5-yl)-amide]] | > 5 µM | * (key: * < 50 μM; ** > 50 μM) | – | – |
| Cc1ccc(C(=O)Nc2ccc(N3CCOCC3)cc2)cc1-c1ccc(C(=O)Nc2ccccc2CN2CCCCC2)cc1 [Example 80, 6-Methyl-biphenyl-3,4′-dicarboxylic acid 3-[(4-morpholin-4-yl-phenyl)-amide] 4′-[(2-piperidin-1-ylmethyl-phenyl)-amide]] | 1 to 5 µM | * (key: * < 50 μM; ** > 50 μM) | – | – |
| Cc1ccc(C(=O)Nc2ccc(N3CCOCC3)cc2)cc1-c1ccc(C(=O)Nc2ccc(CO)cc2)cc1 [Example 81, 6-Methyl-biphenyl-3,4′-dicarboxylic acid 4′-[(4-hydroxymethyl-phenyl)-amide] 3-[(4-morpholin-4-yl-phenyl)-amide]] | 1 to 5 µM | * (key: * < 50 μM; ** > 50 μM) | – | – |
| Cc1ccc(C(=O)Nc2ccc(N3CCOCC3)cc2)cc1-c1ccc(C(=O)Nc2ccc(CN3CCNCC3)cc2)cc1 [Example 82, 6-Methyl-biphenyl-3,4′-dicarboxylic acid 3-[(4-morpholin-4-yl-phenyl)-amide] 4′-[(4-piperazin-1-ylmethyl-phenyl)-amide]] | 1 to 5 µM | * (key: * < 50 μM; ** > 50 μM) | – | – |
| Cc1ccc(C(=O)Nc2ccc(N3CCOCC3)cc2)cc1-c1ccc(C(=O)NCc2cccc(Cl)c2)cc1 [Example 83, 6-Methyl-biphenyl-3,4′-dicarboxylic acid 4′-(3-chloro-benzylamide) 3-[(4-morpholin-4-yl-phenyl)-amide]] | 1 to 5 µM | ** (key: * < 50 μM; ** > 50 μM) | – | – |
| CCOC(=O)c1ccc(-c2cc(C(=O)Nc3ccc(N4CCOCC4)cc3)ccc2C)cc1 [Example 84, 2′-Methyl-5′-(4-morpholin-4-yl-phenylcarbamoyl)-biphenyl-4-carboxylic acid ethyl ester] | – | – | > 5 µM | ** (** > 50 μM) |
| Cc1ccc(NC(=O)c2ccc(N3CCOCC3)cc2)cc1-c1ccc(C(=O)Nc2ccc3[nH]c(C(F)(F)F)nc3c2)cc1 [Example 85, 2′-Methyl-5′-(4-morpholin-4-yl-benzoylamino)-biphenyl-4-carboxylic acid (2-trifluoromethyl-1H-benzoimidazol-5-yl)-amide] | – | – | 1 to 5 µM | ** (** > 50 μM) |
| CC(=O)Nc1ccc(NC(=O)c2ccc(-c3cc(NC(=O)c4ccc(N5CCOCC5)cc4)ccc3C)cc2)cc1 [Example 86, 2′-Methyl-5′-(4-morpholin-4-yl-benzoylamino)-biphenyl-4-carboxylic acid (4-acetylamino-phenyl)-amide] | – | – | 1 to 5 µM | ** (** > 50 μM) |
| Cc1ccc(NC(=O)c2ccc(N3CCOCC3)cc2)cc1-c1ccc(C(=O)Nc2ccc(CN3CCS(=O)(=O)CC3)cc2)cc1 [Example 87, 2′-Methyl-5′-(4-morpholin-4-yl-benzoylamino)-biphenyl-4-carboxylic acid [4-(1,1-dioxo-1lambda*6*-thiomorpholin-4-ylmethyl)-phenyl]-amide] | – | – | < 1 µM | ** (** > 50 μM) |
